From patent US9617285B2, “1-hydroxy-benzooxaboroles as antiparasitic agents” (priority 2013, dated 2017) come the findings set out here.

Type in all cases: in vivo
In one data set the test system is Uncinaria stenocephala. Briefly: Experimental hookworm infections in dogs, U. stenocephala. The note with it: oral, point dose of no greater than 25 mg/kg bodyweight, by Day 5. How it is done: (§1) Activity of Example 1 Compound Against Experimental Hookworm Infections in Dogs
(§2) The antihelminthic activity of the Example 1 compound, when administered orally at a point dose of no greater than 25 mg/kg bodyweight, is evaluated against experimental infections of the hookworms Ancylostoma caninum and Uncinaria stenocephala in dogs. Four (4) beagle dogs in good health are inoculated with 3rd-stage infective larvae of each hookworm species, per W.A.A.V.P. Guidelines (Jacobs, D. E., A. Arakawa, C. H. Courtney, et al., 1994. Vet. Parasitol. 52: 179-202) so as to provide sufficient time for development of full patency. Fecal egg counts are conducted twice before treatment (Day-2 and Day-1). On Day 0, test article (technical active dissolved in 55-65% polyethylene glycol-300, 25-35% propylene glycol and 10-20% water) is administered to all four dogs via esophageal feeding tube. Fecal egg counts are conducted post-treatment on Days 3, 5 and 7. The average of two pre-treatment fecal egg counts is used for comparison to post-treatment egg counts for the purposes of calculating efficacy (geometric mean % reduction in fecal egg count) against each hookworm species.

Another data set deals with Ancylostoma caninum. Briefly: Experimental hookworm infections in dogs, A. caninum. The note with it: oral, point dose of no greater than 25 mg/kg bodyweight, by Day 3. The procedure: as §1, §2
Data set [1] in a line: Tolerability of treatment in hookworm-infected dogs. The following applies: oral, point dose of no greater than 25 mg/kg bodyweight. The procedure:
as §2

Take `C[C@](C#N)(COc1ccc2c(c1Cl)B(O)OC2)NC(=O)c1ccc(OC(F)(F)F)cc1` (single isomer, unassigned) [Example 1]: in the data set with Uncinaria stenocephala, the “reduction in U. stenocephala fecal egg count” value is greater than 50%. The “reduction in A. caninum fecal egg counts” value in the data set on Ancylostoma caninum is listed as greater than 50%. In addition, the tolerability of treatment entry in data set [1] was “well tolerated”.
